Data taken from ChEMBL document CHEMBL4665915, “Evaluation of a Series of Lipidated Tucaresol Adjuvants in a Hepatitis C Virus Vaccine Model” (2020).
Active and inactive are the calls of the source. The calls are words filed in the database; no cut-off is given here.

Legend:
[1] = tested on: Mus musculus; assay: Immuno-adjuvant activity in E2deltaTM3-immunized BALB/cj mouse assessed as potentiation of antibody response to E1E2 by measuring increase in serum anti-E1E2 IgG level administered subcutaneously as prime injection at 200 ug and 800 ug compound split over the remaining four days to give final dose of 1 mg followed by booster injection at four week intervals on day 28, 56 and 84 and measured at […] post-booster injection on days 34, 62 and 90 by ELISA; type: functional, organism-based
[2] = species: Mus musculus; assay: Immuno-adjuvant activity in E2deltaTM3-immunized BALB/cj mouse assessed as neutralization of HCV H77 genotype 1a pseudotyped virus particle with pooled immune sera at 1 ug/ml; type: functional; settings: dose 1 µg/ml

Structure (SMILES)	Activity [1]	Activity [2] [%]
CCCCCCCCCCCCCCCCOc1cccc(O)c1C=O	Active	59
CCCCCCCCCCCCCCCCOc1cc(O)ccc1C=O	Active	78
O=Cc1c(O)cccc1OCc1ccc(C(=O)O)cc1 [TUCARESOL]		61
CCCCCCCCCCCCCCCCOc1ccc(O)c(O)c1C=O	Active	71
